PubChem BioAssay (NCI)
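Results reflect a 48-hour exposure of cells in 96-well plates to compound at five concentrations. Abbreviation: GI50, concentration required for 50% inhibition of growth. The concentration for full growth arrest is given as TGI.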

Legend:
Assay in all cases: NCI tumour cell line growth inhibition, 48 h
UACC-257 melanoma = test system: UACC-257 melanoma
SK-MEL-2 melanoma = test system: SK-MEL-2 melanoma
A549 NSCLC = test system: A549 NSCLC
T-47D breast = test system: T-47D breast
SW-620 colon = test system: SW-620 colon
786-0 renal = test system: 786-0 renal
SF-295 CNS = test system: SF-295 CNS
SK-MEL-28 melanoma = test system: SK-MEL-28 melanoma
CCRF-CEM leukemia = test system: CCRF-CEM leukemia
COLO 205 colon = test system: COLO 205 colon
SF-539 CNS = test system: SF-539 CNS
U251 CNS = test system: U251 CNS
SK-OV-3 ovarian = test system: SK-OV-3 ovarian
OVCAR-4 ovarian = test system: OVCAR-4 ovarian
SNB-19 CNS = test system: SNB-19 CNS
OVCAR-8 ovarian = test system: OVCAR-8 ovarian
CAKI-1 renal = test system: CAKI-1 renal
EKVX NSCLC = test system: EKVX NSCLC
DU-145 prostate = test system: DU-145 prostate
HOP-92 NSCLC = test system: HOP-92 NSCLC
TK-10 renal = test system: TK-10 renal
K-562 leukemia = test system: K-562 leukemia
SNB-75 CNS = test system: SNB-75 CNS
RXF 393 renal = test system: RXF 393 renal
ACHN renal = test system: ACHN renal
SR leukemia = test system: SR leukemia
KM12 colon = test system: KM12 colon
NCI-H522 lung = test system: NCI-H522 lung
HT29 colon = test system: HT29 colon
BT-549 breast = test system: BT-549 breast
LOX IMVI melanoma = test system: LOX IMVI melanoma
OVCAR-5 ovarian = test system: OVCAR-5 ovarian
HCT-15 colon = test system: HCT-15 colon
MALME-3M melanoma = test system: MALME-3M melanoma
PC-3 prostate = test system: PC-3 prostate
SF-268 CNS = test system: SF-268 CNS
A498 renal = test system: A498 renal
HL-60(TB) leukemia = test system: HL-60(TB) leukemia
RPMI-8226 leukemia = test system: RPMI-8226 leukemia
OVCAR-3 ovarian = test system: OVCAR-3 ovarian
MDA-MB-231 breast = test system: MDA-MB-231 breast
SK-MEL-5 melanoma = test system: SK-MEL-5 melanoma
HCT-116 colon = test system: HCT-116 colon
UO-31 renal = test system: UO-31 renal
NCI/ADR-RES ovarian = test system: NCI/ADR-RES ovarian
NCI-H226 lung = test system: NCI-H226 lung
MCF7 breast = test system: MCF7 breast
HS 578T breast = test system: HS 578T breast
NCI-H460 lung = test system: NCI-H460 lung
UACC-62 melanoma = test system: UACC-62 melanoma
HOP-62 NSCLC = test system: HOP-62 NSCLC
MDA-MB-435 = test system: MDA-MB-435
IGROV1 ovarian = test system: IGROV1 ovarian
M14 melanoma = test system: M14 melanoma
HCC-2998 colon = test system: HCC-2998 colon

## Cc1ccc2c(n1)C(=O)C(Cl)=C(Nc1ccccc1C(=O)OC(C)(C)C)C2=O
UACC-257 melanoma
  GI50: 1690 nM
  TGI: 3.3 µM
SK-MEL-2 melanoma
  GI50: 2270 nM
  TGI: 6.78 µM
A549 NSCLC
  GI50: 44.5 µM
  TGI: > 100 µM
T-47D breast
  GI50: 1840 nM
  TGI: 4.91 µM
SW-620 colon
  GI50: 1840 nM
  TGI: 6.26 µM
786-0 renal
  GI50: 1690 nM
  TGI: 3.22 µM
SF-295 CNS
  GI50: 4.25 µM
  TGI: 22.5 µM
SK-MEL-28 melanoma
  GI50: 1660 nM
  TGI: 3.12 µM
CCRF-CEM leukemia
  GI50: 425 nM
  TGI: > 100 µM
COLO 205 colon
  GI50: 1770 nM
  TGI: 3.48 µM
SF-539 CNS
  GI50: 1700 nM
  TGI: 3.18 µM
U251 CNS
  GI50: 2420 nM
  TGI: 6.81 µM
SK-OV-3 ovarian
  GI50: > 100 µM
  TGI: > 100 µM
OVCAR-4 ovarian
  GI50: 1400 nM
  TGI: 2780 nM
SNB-19 CNS
  GI50: 3.3 µM
  TGI: 15.4 µM
OVCAR-8 ovarian
  GI50: 2830 nM
  TGI: 9.32 µM
CAKI-1 renal
  GI50: 1550 nM
  TGI: 2900 nM
EKVX NSCLC
  GI50: 1590 nM
  TGI: 3.01 µM
DU-145 prostate
  GI50: 1770 nM
  TGI: 3.32 µM
HOP-92 NSCLC
  GI50: 1530 nM
  TGI: 2890 nM
TK-10 renal
  GI50: 1810 nM
  TGI: 3.28 µM
K-562 leukemia
  GI50: 549 nM
  TGI: > 100 µM
SNB-75 CNS
  GI50: 14.7 µM
  TGI: > 100 µM
RXF 393 renal
  GI50: 1620 nM
  TGI: 2990 nM
ACHN renal
  GI50: 1750 nM
  TGI: 3.14 µM
SR leukemia
  GI50: 442 nM
  TGI: 7.86 µM
KM12 colon
  GI50: 6.07 µM
  TGI: 50.4 µM
NCI-H522 lung
  GI50: 1830 nM
  TGI: 3.86 µM
HT29 colon
  GI50: 2940 nM
  TGI: 8.52 µM
BT-549 breast
  GI50: 2900 nM
  TGI: 9.04 µM
LOX IMVI melanoma
  GI50: 1020 nM
  TGI: 2310 nM
OVCAR-5 ovarian
  GI50: 2050 nM
  TGI: 4.1 µM
HCT-15 colon
  GI50: 1370 nM
  TGI: 3.32 µM
MALME-3M melanoma
  GI50: 1660 nM
  TGI: 3.27 µM
PC-3 prostate
  GI50: 1780 nM
  TGI: 4.19 µM
SF-268 CNS
  GI50: 3.06 µM
  TGI: 14.7 µM
A498 renal
  GI50: 12.4 µM
  TGI: 47.8 µM
HL-60(TB) leukemia
  GI50: 394 nM
  TGI: 1900 nM
RPMI-8226 leukemia
  GI50: 1780 nM
  TGI: 5.9 µM
OVCAR-3 ovarian
  GI50: 1310 nM
  TGI: 2960 nM
MDA-MB-231 breast
  GI50: 1580 nM
  TGI: 3.26 µM
SK-MEL-5 melanoma
  GI50: 1590 nM
  TGI: 2980 nM
HCT-116 colon
  GI50: 1610 nM
  TGI: 3.15 µM
UO-31 renal
  GI50: 1420 nM
  TGI: 2740 nM
NCI/ADR-RES ovarian
  GI50: 2170 nM
  TGI: 5.35 µM
NCI-H226 lung
  GI50: 6.77 µM
  TGI: > 100 µM
MCF7 breast
  GI50: 813 nM
  TGI: 3.58 µM
HS 578T breast
  GI50: 2390 nM
  TGI: 7.54 µM
NCI-H460 lung
  GI50: 3.08 µM
  TGI: 11.3 µM
UACC-62 melanoma
  GI50: 1820 nM
  TGI: 3.98 µM
HOP-62 NSCLC
  GI50: 3.59 µM
  TGI: 18.3 µM
MDA-MB-435
  GI50: 1710 nM
  TGI: 3.19 µM
IGROV1 ovarian
  GI50: 1730 nM
  TGI: 3.43 µM
M14 melanoma
  GI50: 1730 nM
  TGI: 3.38 µM
HCC-2998 colon
  GI50: 1750 nM
  TGI: 3.27 µM
